Assay results reported in ChEMBL document CHEMBL2057193, “Preparation of 3-substituted-1-isopropyl-1H-pyrazolo[3,4-d]pyrimidin-4-amines as RET kinase inhibitors” (J Med Chem, 2012).
Calls of active or inactive are those of the source. The calls are words filed in the database; no cut-off is given here.

Columns and labels:
[1] = biological target: T1, Proto-oncogene tyrosine-protein kinase receptor Ret (Homo sapiens, UniProt P07949); assay: Inhibition of RET by commercial radiometric assay
[2] = biological target: T2, Mitogen-activated protein kinase; ERK1/ERK2 (Homo sapiens) (UniProt P27361+P28482); assay: Inhibition of ERK1/2 phosphorylation in human HCT116 cells at 50 to 200 nM by Western blotting; assay type: cell-based; details: HCT-116
T2 sequence (P27361 whole entry, looked up): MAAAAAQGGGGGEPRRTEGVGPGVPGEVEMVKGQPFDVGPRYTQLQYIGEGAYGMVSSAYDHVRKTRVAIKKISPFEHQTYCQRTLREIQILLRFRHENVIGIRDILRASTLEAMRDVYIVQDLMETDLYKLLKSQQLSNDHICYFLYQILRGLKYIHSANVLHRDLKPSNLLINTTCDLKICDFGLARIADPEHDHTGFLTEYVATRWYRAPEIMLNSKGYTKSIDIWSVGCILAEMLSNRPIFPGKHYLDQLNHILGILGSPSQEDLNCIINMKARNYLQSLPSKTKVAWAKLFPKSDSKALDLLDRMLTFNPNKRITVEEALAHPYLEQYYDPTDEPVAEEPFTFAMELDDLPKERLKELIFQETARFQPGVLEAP
T2 sequence (P28482 whole entry, looked up): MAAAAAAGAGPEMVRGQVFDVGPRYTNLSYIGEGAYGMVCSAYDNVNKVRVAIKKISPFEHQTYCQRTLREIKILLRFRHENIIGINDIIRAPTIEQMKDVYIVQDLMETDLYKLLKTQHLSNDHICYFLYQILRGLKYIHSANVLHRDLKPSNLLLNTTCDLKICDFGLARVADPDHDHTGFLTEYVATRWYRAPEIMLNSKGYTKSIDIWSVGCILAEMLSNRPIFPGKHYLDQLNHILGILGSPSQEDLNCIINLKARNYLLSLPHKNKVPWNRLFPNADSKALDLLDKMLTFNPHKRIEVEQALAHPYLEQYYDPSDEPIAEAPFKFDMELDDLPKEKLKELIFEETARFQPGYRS

[3] = biological target: T2, Mitogen-activated protein kinase; ERK1/ERK2 (Homo sapiens); assay: Inhibition of nuclear translocation of ERK1/2 in human HCT116 cells at 200 nM by immunofluorescence microscopy; assay type: cell-based; details: HCT-116
HCT-116 [4] = assay: Antiproliferative activity against human HCT116 cells; assay type: functional, cell-based
TPC1 [5] = assay: Antiproliferative activity against human TPC1 cells; assay type: functional, cell-based
HCT-116 [6] = assay: Antiproliferative activity against human HCT116 cells at 1 uM; assay type: functional, cell-based
TPC1 [7] = assay: Antiproliferative activity against human TPC1 cells at 1 uM; assay type: functional, cell-based
HCT-116 [8] = assay: Toxicity in human HCT116 cells at =< 10 uM; assay type: cell-based
TPC1 [9] = assay: Toxicity in human TPC1 cells at =< 10 uM; assay type: cell-based
[10] = biological target: T1, Proto-oncogene tyrosine-protein kinase receptor Ret; details: MCF7, 100 nM
Description: Inhibition of RET in serum starved human MCF7 cells assessed as reduction in GDNF-induced ERK1/2 phosphorylation at 100 nM added 30 mins before GDNF stimulation and incubated for further 45 mins by Western blotting

[11] = biological target: T1, Proto-oncogene tyrosine-protein kinase receptor Ret; details: TPC1, 50 to 200 nM
Description: Inhibition of RET in human TPC1 cells expressing constitutively active RET fusion protein assessed as reduction in ERK1/2 phosphorylation at 50 to 200 nM by Western blotting

[12] = biological target: T1, Proto-oncogene tyrosine-protein kinase receptor Ret; details: TPC1, 200 nM
Description: Inhibition of RET in human TPC1 cells expressing constitutively active RET fusion protein assessed as reduction in nuclear translocation of ERK1/2 at 200 nM by immunofluorescence microscopy

T1 sequence (P07949 whole entry): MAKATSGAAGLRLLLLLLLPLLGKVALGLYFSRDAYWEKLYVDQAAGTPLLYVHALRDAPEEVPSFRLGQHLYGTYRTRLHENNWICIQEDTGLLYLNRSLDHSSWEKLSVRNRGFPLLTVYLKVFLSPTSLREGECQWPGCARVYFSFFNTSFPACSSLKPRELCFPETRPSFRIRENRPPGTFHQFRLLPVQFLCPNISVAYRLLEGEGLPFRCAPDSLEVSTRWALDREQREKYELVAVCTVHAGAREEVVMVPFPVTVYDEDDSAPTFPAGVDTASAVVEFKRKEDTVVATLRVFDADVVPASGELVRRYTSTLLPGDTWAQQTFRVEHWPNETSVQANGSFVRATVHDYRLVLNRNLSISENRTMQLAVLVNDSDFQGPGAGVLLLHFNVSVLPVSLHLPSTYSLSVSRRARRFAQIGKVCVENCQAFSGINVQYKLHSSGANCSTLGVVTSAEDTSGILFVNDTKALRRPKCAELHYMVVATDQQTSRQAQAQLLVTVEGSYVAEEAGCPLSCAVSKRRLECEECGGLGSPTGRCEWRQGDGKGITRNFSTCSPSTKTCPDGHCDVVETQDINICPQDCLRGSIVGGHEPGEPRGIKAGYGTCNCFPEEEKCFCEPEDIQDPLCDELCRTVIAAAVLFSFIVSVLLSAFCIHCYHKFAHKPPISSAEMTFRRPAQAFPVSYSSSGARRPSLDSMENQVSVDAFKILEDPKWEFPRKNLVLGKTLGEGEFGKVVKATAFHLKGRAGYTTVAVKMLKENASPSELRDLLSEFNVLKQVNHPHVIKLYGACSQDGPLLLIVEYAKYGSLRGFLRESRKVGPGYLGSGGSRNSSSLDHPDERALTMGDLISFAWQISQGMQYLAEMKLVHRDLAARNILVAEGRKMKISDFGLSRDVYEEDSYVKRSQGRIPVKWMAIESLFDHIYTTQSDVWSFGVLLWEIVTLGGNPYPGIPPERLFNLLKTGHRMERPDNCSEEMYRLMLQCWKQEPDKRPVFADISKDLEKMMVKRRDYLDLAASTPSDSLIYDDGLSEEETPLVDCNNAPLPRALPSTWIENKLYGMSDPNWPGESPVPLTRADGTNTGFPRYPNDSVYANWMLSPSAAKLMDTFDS

Row | Structure (SMILES) | IC50 [1] | inhibition [2] | inhibition [3] | EC50 (HCT-116 [4]) | EC50 (TPC1 [5]) | inhibition (HCT-116 [6]) | inhibition (TPC1 [7]) | Activity (HCT-116 [8]) | Activity (TPC1 [9]) | inhibition [10] | inhibition [11] | inhibition [12]
1 | CC(C)n1nc(C#Cc2ccccc2)c2c(N)ncnc21 | 8 nM | inactive | inactive | 2400 nM | 3300 nM | inactive | Active | Non-toxic | Non-toxic | Active | Active | Active
2 | CNC(=O)c1cc(Oc2ccc(NC(=O)Nc3ccc(Cl)c(C(F)(F)F)c3)cc2)ccn1 [SORAFENIB] | – | – | – | – | 2600 nM | – | – | – | – | – | – | –
